Assay results from patent US20130274338A1, “PHARMACEUTICAL COMPOSITIONS COMPRISING DGLA, 15-OHEPA, AND/OR 15-HETRE AND METHODS OF REDUCING SEBUM PRODUCTION USING SAME” (priority 2012, published 2013).

Tested on: P. acnes
Experiment: Agar dilution method, growth of P. acnes and MIC, single compounds
Type: cell-based, Propionibacterium acnes
Design: key to Growth Index Plate 1 / Growth Index Plate 2 / Growth Index Plate 3 / Growth Index Avg: +++: confluent growth (comparable to control); ++: less confluent growth; +: marked reduction in growth to multiple tiny, single colonies; −: no growth present
Details: for MIC: Cutibacterium acnes, read-out: MIC (mg/mL) as per P-11-0007 or P-11-0008 Addendum A
Procedure: Several compounds including fatty acids such as DGLA, 15-OHEPA, and 15-HETrE were tested to determine their capacity to inhibit the growth of P. acnes. In an exemplary method, an agar dilution method was used to determine the minimum inhibitory concentration (MIC) of each tested compound. Briefly, the agar dilution method involved preparing a series of concentrations of each compound (e.g., nicotinamide, benzoyl peroxide, adapalene, metronidazole, DGLA, 15-OHEPA, and 15-HETrE) in a Reinforced Clostridial Agar (RCA) media that facilitates growth of P. acnes under anaerobic conditions. An inoculum of P. acnes was prepared by incubation of P. acnes for approximately seven days at 35-37° C. to achieve a ≧1.0 OD600 inoculum of P. acnes in RCM broth. A portion of this inoculum was then added to the surface of each plate as a 10 μL spot and incubated at 35-37° C. for 72 hours or more. Growth of P. acnes was then observed and compared to control plates in which no compound has been added, and positive inhibition plates prepared with erythromycin. […] The growth of P. acnes in the presence of nicotinamide, benzoyl peroxide, adapalene, metronidazole, DGLA, 15-OHEPA, and 15-HETrE was determined with varying concentrations of the compound (see, Table 2). Next, the MIC was determined as the concentration at which a marked reduction (+) occurs in the appearance of growth on the test plate (as per Clinical and Laboratory Standards Institute M11-A7).

[1] = compound alone, MIC = concentration with marked reduction (+) of growth

COc1ccc(-c2ccc3cc(C(=O)O)ccc3c2)cc1C12CC3CC(CC(C3)C1)C2 [Adapalene, 6-[3-(1-adamantyl)-4-methoxyphenyl]-2-naphthoic acid]
++: Growth Index Avg (compound at 0.6 mg/mL) | Growth Index Plate 1 (compound at 0.6 mg/mL) | Growth Index Plate 2 (compound at 0.6 mg/mL) | Growth Index Avg (compound at 0.8 mg/mL) | Growth Index Plate 1 (compound at 0.8 mg/mL) | Growth Index Plate 2 (compound at 0.8 mg/mL) | Growth Index Plate 3 (compound at 0.8 mg/mL)
+++: Growth Index Avg (compound at 0.2 mg/mL) | Growth Index Plate 1 (compound at 0.2 mg/mL) | Growth Index Plate 2 (compound at 0.2 mg/mL) | Growth Index Plate 3 (compound at 0.2 mg/mL) | Growth Index Avg (compound at 0.4 mg/mL) | Growth Index Plate 1 (compound at 0.4 mg/mL) | Growth Index Plate 2 (compound at 0.4 mg/mL) | Growth Index Plate 3 (compound at 0.4 mg/mL) | Growth Index Plate 3 (compound at 0.6 mg/mL)
> 0.8 mg/mL: MIC [1] | MIC (mg/mL) as per P-11-0007 or P-11-0008 Addendum A [1]

O=C(OOC(=O)c1ccccc1)c1ccccc1 [Benzoyl Peroxide]
++: Growth Index Avg (compound at 0.6 mg/mL) | Growth Index Plate 1 (compound at 0.6 mg/mL) | Growth Index Plate 3 (compound at 0.6 mg/mL)
−: Growth Index Avg (compound at 1.0 mg/mL) | Growth Index Plate 1 (compound at 1.0 mg/mL) | Growth Index Plate 2 (compound at 1.0 mg/mL) | Growth Index Plate 3 (compound at 1.0 mg/mL)
0.6 to 0.8 mg/mL: MIC [1]
+: Growth Index Avg (compound at 0.8 mg/mL) | Growth Index Plate 1 (compound at 0.8 mg/mL) | Growth Index Plate 2 (compound at 0.8 mg/mL) | Growth Index Plate 3 (compound at 0.8 mg/mL)
+++: Growth Index Avg (compound at 0.2 mg/mL) | Growth Index Plate 1 (compound at 0.2 mg/mL) | Growth Index Plate 2 (compound at 0.2 mg/mL) | Growth Index Plate 3 (compound at 0.2 mg/mL) | Growth Index Avg (compound at 0.4 mg/mL) | Growth Index Plate 1 (compound at 0.4 mg/mL) | Growth Index Plate 2 (compound at 0.4 mg/mL) | Growth Index Plate 3 (compound at 0.4 mg/mL) | Growth Index Plate 2 (compound at 0.6 mg/mL)

Cc1ncc([N+](=O)[O-])n1CCO [Metronidazole]
> 1 mg/mL: MIC [1]
+++: Growth Index Avg (compound at 0.2 mg/mL) | Growth Index Plate 1 (compound at 0.2 mg/mL) | Growth Index Plate 2 (compound at 0.2 mg/mL) | Growth Index Plate 3 (compound at 0.2 mg/mL) | Growth Index Avg (compound at 0.4 mg/mL) | Growth Index Plate 1 (compound at 0.4 mg/mL) | Growth Index Plate 2 (compound at 0.4 mg/mL) | Growth Index Plate 3 (compound at 0.4 mg/mL) | Growth Index Avg (compound at 0.6 mg/mL) | Growth Index Plate 1 (compound at 0.6 mg/mL) | Growth Index Plate 2 (compound at 0.6 mg/mL) | Growth Index Plate 3 (compound at 0.6 mg/mL) | Growth Index Avg (compound at 0.8 mg/mL) | Growth Index Plate 1 (compound at 0.8 mg/mL) | Growth Index Plate 2 (compound at 0.8 mg/mL) | Growth Index Plate 3 (compound at 0.8 mg/mL) | Growth Index Avg (compound at 1.0 mg/mL) | Growth Index Plate 1 (compound at 1.0 mg/mL) | Growth Index Plate 3 (compound at 1.0 mg/mL)
++: Growth Index Plate 2 (compound at 1.0 mg/mL)

NC(=O)c1cccnc1 [Nicotinamide]
+++: Growth Index Avg (compound at 1 mg/mL) | Growth Index Plate 1 (compound at 1 mg/mL) | Growth Index Plate 2 (compound at 1 mg/mL) | Growth Index Plate 3 (compound at 1 mg/mL) | Growth Index Avg (compound at 5 mg/mL) | Growth Index Plate 1 (compound at 5 mg/mL) | Growth Index Plate 2 (compound at 5 mg/mL) | Growth Index Plate 3 (compound at 5 mg/mL)
+: Growth Index Avg (compound at 15 mg/mL) | Growth Index Plate 2 (compound at 15 mg/mL) | Growth Index Plate 3 (compound at 15 mg/mL)
10 to 15 mg/mL: MIC [1]
−: Growth Index Plate 1 (compound at 15 mg/mL) | Growth Index Avg (compound at 25 mg/mL) | Growth Index Plate 1 (compound at 25 mg/mL) | Growth Index Plate 2 (compound at 25 mg/mL) | Growth Index Plate 3 (compound at 25 mg/mL)
++: Growth Index Avg (compound at 10 mg/mL) | Growth Index Plate 1 (compound at 10 mg/mL) | Growth Index Plate 2 (compound at 10 mg/mL) | Growth Index Plate 3 (compound at 10 mg/mL)
